{"source": "patent US11655215B2", "about": "“Photostabilizing compounds, compositions, and methods” (ELC MANAGEMENT LLC, priority 2018, dated 2023)", "format_in_all_cases": "physicochemical", "key": {"[1]": {"experiment": "PpIX triplet state quenching (transient absorption)", "conditions": "Argon saturated acetonitrile, 532 nm excitation, transient absorbance at 630 nm; slope of FIG. 4", "procedure": "The Argon saturated acetonitrile solutions of Protoporphyrin IX (PpIX) at a concentration optimal for light absorption and Compound 1 at various concentrations were measured for transient absorption on a homebuilt system (Y. Yagci, S. Jockusch and N. J. Turro, Macromolecules, 2007, 40, 4481-4485; hereby incorporated by reference in its entirety). Triplet lifetimes were measured at 532 nm (7 ns pulse length) and the transient absorbance was monitored at 630 nm."}, "[2]": {"experiment": "Singlet oxygen quenching rate constant in acetonitrile (phosphorescence lifetime)", "conditions": "air saturated acetonitrile, Pp-MeIX, 1O2 phosphorescence lifetime at 1270 nm; slope of FIG. 9B", "procedure": "(§1) Singlet oxygen phosphorescence measurements of the air saturated acetonitrile solutions of the dimethyl ester derivative of PpIX (Pp-MeIX) at the concentration optimal for light absorption and Compound 1 at various concentrations were performed on a modified Fluorolog-3 spectrometer (HORIBA Jobin Yvon) in conjunction with a NIR sensitive photomultiplier tube (H102330A-45, Hamamatsu). A Spectra Physics GCR-150-30 Nd:YAG laser (532 nm, ca. 5 mJ per pulse, 7 ns) was used for pulsed excitation to collect ^1O2 phosphorescence decay traces at 1270 nm which were stored on a digital oscilloscope (TDS 360 from Tektronics)."}, "[3]": {"experiment": "PpIX singlet excited state quenching (TCSPC fluorescence lifetimes)", "conditions": "acetonitrile, excitation 496 nm, fluorescence at 630 nm; slope of FIG. 5", "procedure": "(§2) The acetonitrile solutions of PpIX at a concentration optimal for light absorption and Compound 1 at various concentration were measured on OB920 TR-SPC (Edinburgh Analytical Instruments) by time-correlated single photon counting (TCSPC) using a pulsed LED (496 nm) for excitation (PicoQuant) for the corresponding fluorescence lifetimes. The fluorescence signal was collected at 630 nm."}, "[4]": {"experiment": "Singlet oxygen generation quenching, Stern-Volmer, Pp-MeIX in acetonitrile", "conditions": "air saturated acetonitrile, 532 nm excitation, 1O2 phosphorescence at 1270 nm, slope of FIG. 7", "procedure": "as §1, with “Tektronics). The Stern-Volmer plots of singlet oxygen phosphorescence were illustrated in FIG. 7. The Stern-Volmer constant Ksv was calculated from the slope of the plot in FIG. 7 to be 57±2 M^−1, which is a direct measurement of the singlet oxygen suppression efficiency of Compound 1.” for “Tektronics).”"}, "[5]": {"experiment": "Singlet oxygen generation quenching, Stern-Volmer, Pp-MeIX in CDCl3", "conditions": "air saturated CDCl3, Pp-MeIX, 532 nm excitation, 1O2 phosphorescence at 1270 nm; slope of FIG. 8B", "procedure": "as §1, with “CDCl3” for “acetonitrile”, “Tektronics). The Stern-Volmer plots of singlet oxygen phosphorescence were illustrated in FIG. 8B. The Stern-Volmer constant Ksv was calculated from the slope of the plot in FIG. 8B to be 14±1 M^−1, which is a direct measurement of the singlet oxygen suppression efficiency of Compound 1.” for “Tektronics).”"}, "[6]": {"experiment": "Keto-Avobenzone triplet state quenching (laser flash photolysis, transient absorption)", "conditions": "deoxygenated acetonitrile, avobenzone 0.25 mM, 266 nm flash photolysis, monitored at 380 nm; slope of FIG. 3", "procedure": "The deoxygenated acetonitrile solutions of avobenzone at 0.25 mM and Compound 1 at various concentrations were measured for transient absorption on a homebuilt system (Y. Yagci, S. Jockusch and N. J. Turro, Macromolecules, 2007, 40, 4481-4485; hereby incorporated by reference in its entirety). Keto-Avobenzone was generated by photolysis of enol-Avobenzone at 350 nm. Laser flash photolysis of keto-Avobenzone was conducted at 266 nm with 5 ns pulse width as shown below:\nThe decay traces of the triplet-absorption of keto-Avobenzone was monitored at 380 nm."}, "[7]": {"experiment": "Fluorescence quenching of retinol (TCSPC fluorescence lifetimes)", "conditions": "THF, retinol 0.2 mM, excitation 335 nm, fluorescence at 483 nm; slope of FIG. 2", "procedure": "as §2, with “THF” for “acetonitrile”, “retinol” for “PpIX”, “0.2 mM” for “a concentration optimal for light absorption”, “(335 nm, 5 MHz)” for “(496 nm)”, “483” for “630”"}}}
{"smiles": "CCCCC(CC)COC(=O)/C(C#N)=C1/c2ccccc2-c2cccnc21", "note": "(stereo not shown) [Compound 1]", "values": [{"measurement": "quenching rate constant kq of PpIX triplet states", "setting": "[1]", "result": "2.7±0.1×10^7 M^−1s^−1"}, {"measurement": "bimolecular quenching rate constant kq of singlet oxygen quenching", "setting": "[2]", "result": "1.5±0.1×10^5 M^−1s^−1"}, {"measurement": "bimolecular quenching rate constant Kq of quenching of PpIX fluorescence (singlet excited state)", "setting": "[3]", "result": "2.5±0.1×10^9 M^−1s^−1"}, {"measurement": "Stern-Volmer constant Ksv (singlet oxygen suppression efficiency)", "setting": "[4]", "result": "57 ± 2", "unit": "M⁻¹"}, {"measurement": "Stern-Volmer constant Ksv (singlet oxygen suppression efficiency)", "setting": "[5]", "result": "14 ± 1", "unit": "M⁻¹"}, {"measurement": "quenching rate constant kq of keto-Avobenzone triplet states", "setting": "[6]", "result": "(3.5±0.2)×10^9 M^−1s^−1"}, {"measurement": "bimolecular quenching rate constant Kq of quenching of retinol fluorescence", "setting": "[7]", "result": "(9.0±0.3)×10^9 M^−1s^−1"}]}
